For the assay, the target named is T1, saccharase from pig small intestinal mucosa (Sus scrofa, UniProt P56729).
T1 construct: sucrase and isomaltase chains cleaved from one SI precursor
Kind of assay: Saccharase inhibition test in vitro. The class given is biochemical. The settings on record: solubilised saccharase 0.12 SU, sucrose substrate, 0.1 M sodium maleate buffer pH 6.0, 35° C.; 1 SIU = amount inhibiting two saccharase units by 50%. The procedure:
A saccharase inhibitor unit (SIU) is defined as the amount of inhibitor which inhibits two saccharase units to the extent of 50%. A saccharase unit (SU) is the amount of enzyme which cleaves 1 μmol of sucrose into glucose and fructose in one minute under the test conditions given below. […] To perform the tests, 0.05 ml of a solution of saccharase^(1) which had been set at 0.12 SU was mixed with 0 to 20 μg of inhibitor or 0 to 20 μl of the solution for testing and made up with 0.1 M sodium maleate buffer of pH 6.0 or 0.1 ml. The mixture was equilibrated for 10 minutes at 35° C. and then mixed with 0.1 ml of a 0.05 M solution of sucrose in 0.1 M sodium maleate buffer of pH 6.0 pre-warmed to 35° C. After incubation for 20 minutes at 35° C., the saccharase reaction was stopped by addition of 1 ml of glucose oxidase reagent^(2), and incubation was continued for 30 minutes at 35° C. Thereafter 1 ml of 50% strength H2 SO4 was added and measured at 545 nm against an appropriate blank. For evaluation, the percentage inhibition of the saccharase employed is calculated and, with the aid of a glucose calibration curve, converted from the 50% inhibition point to SIU/g or SIU/liter. (1) Solubilised saccharase from pig small intestinal mucosa according to B. Borgstrom, A. Dahlquist, Acta Chem. Scand. 12, (1958), page 1997. Diluted with 0.1 M sodium maleate buffer of pH 6.0 to the appropriate SU content. (2) The glucose oxidase reagent is prepared by dissolving 2 mg of glucose oxidase (Boehringer No. 15423) in 100 ml of 0.565 M tris-HCl buffer of pH 7.0 and subsequently adding 1 ml of detergent solution (2 g of Triton X 100+8 g of 95% strength ethanol AR), 1 ml of dianisidine solution (260 mg of o-dianisidine 0.2 HCl in 20 ml of H2 O) and 0.5 ml of 0.1% strength aqueous peroxidase solution (Boehringer No. 15302).

T1 sequence (P56729 with tags, fused parts or gaps): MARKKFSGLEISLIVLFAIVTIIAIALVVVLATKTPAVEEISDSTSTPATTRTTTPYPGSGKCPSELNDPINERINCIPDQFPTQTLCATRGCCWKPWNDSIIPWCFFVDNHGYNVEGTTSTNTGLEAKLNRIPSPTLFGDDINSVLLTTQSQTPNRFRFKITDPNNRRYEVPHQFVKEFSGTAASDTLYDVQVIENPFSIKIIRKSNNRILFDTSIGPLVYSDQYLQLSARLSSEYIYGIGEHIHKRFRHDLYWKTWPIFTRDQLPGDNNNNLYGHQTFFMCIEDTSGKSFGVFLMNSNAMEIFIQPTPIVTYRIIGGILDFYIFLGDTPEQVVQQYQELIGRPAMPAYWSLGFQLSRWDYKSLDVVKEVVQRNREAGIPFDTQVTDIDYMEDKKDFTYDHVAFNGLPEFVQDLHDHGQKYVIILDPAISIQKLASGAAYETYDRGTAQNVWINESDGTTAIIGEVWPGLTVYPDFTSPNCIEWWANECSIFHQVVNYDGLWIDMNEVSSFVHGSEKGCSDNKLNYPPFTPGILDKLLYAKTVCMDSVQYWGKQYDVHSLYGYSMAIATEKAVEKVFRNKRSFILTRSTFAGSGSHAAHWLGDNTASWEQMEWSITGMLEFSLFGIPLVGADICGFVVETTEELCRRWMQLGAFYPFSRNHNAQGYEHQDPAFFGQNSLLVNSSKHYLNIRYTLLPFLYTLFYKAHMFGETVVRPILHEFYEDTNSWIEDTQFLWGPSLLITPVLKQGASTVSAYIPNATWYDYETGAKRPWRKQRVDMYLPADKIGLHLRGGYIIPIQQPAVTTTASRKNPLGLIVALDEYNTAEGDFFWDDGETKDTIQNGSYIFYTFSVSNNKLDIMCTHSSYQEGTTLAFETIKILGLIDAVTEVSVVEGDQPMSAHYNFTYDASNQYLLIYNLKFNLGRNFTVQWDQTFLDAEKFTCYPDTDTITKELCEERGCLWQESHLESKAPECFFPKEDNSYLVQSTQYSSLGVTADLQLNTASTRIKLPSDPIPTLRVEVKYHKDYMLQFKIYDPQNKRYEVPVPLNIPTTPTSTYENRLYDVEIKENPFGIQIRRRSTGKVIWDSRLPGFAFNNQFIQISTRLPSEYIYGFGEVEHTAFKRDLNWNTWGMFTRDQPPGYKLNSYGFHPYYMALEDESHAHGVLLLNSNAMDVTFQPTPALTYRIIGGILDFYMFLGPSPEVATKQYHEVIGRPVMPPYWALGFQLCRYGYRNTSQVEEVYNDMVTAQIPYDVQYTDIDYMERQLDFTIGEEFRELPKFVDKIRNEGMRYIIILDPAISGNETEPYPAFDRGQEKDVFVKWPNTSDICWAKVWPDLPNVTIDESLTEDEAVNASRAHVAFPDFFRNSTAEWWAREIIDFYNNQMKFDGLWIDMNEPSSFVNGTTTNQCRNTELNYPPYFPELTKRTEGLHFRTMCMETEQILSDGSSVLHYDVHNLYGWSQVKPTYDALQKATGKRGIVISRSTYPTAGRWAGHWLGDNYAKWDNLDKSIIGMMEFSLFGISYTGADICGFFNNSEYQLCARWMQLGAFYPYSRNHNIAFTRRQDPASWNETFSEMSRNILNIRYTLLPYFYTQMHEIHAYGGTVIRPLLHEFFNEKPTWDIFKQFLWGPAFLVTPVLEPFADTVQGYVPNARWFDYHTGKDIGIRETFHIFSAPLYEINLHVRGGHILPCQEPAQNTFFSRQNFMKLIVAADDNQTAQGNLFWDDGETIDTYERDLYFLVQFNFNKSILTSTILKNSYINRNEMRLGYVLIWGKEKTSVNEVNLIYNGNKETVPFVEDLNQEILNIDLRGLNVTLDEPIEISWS

As for `COC1O[C@H](C)[C@@H](N[C@H]2C=C(CO)[C@@H](O)[C@H](O)[C@H]2O)[C@H](O)[C@H]1O` (stereo partly shown), the “Effectiveness in the saccharase inhibition test in vitro (saccharase inhibitor units per g)” value is on record as 38 850 SIU/g.
With `C[C@H]1O[C@H](O[C@H]2[C@H](O)[C@@H](O)[C@@H](O[C@H]3[C@H](O)[C@@H](O)C(O)O[C@@H]3CO)O[C@@H]2CO)[C@H](O)[C@@H](O)[C@@H]1N[C@H]1C[C@H](CO)[C@@H](O)[C@H](O)[C@H]1O` (stereo partly shown) [Example 1], the “Effectiveness in the saccharase inhibition test in vitro (saccharase inhibitor units per g)” value is on record as 59 829 SIU/g.
Turning to `COC1O[C@H](C)[C@@H](N[C@H]2C[C@H](CO)[C@@H](O)[C@H](O)[C@H]2O)[C@H](O)[C@H]1O` (stereo partly shown) [Example 2], the “Effectiveness in the saccharase inhibition test in vitro (saccharase inhibitor units per g)” value is listed as 38 850 SIU/g.
In the case of `C[C@H]1O[C@H](O[C@H]2[C@H](O)[C@@H](O)[C@@H](O[C@H]3[C@H](O)[C@@H](O)C(O)O[C@@H]3CO)O[C@@H]2CO)[C@H](O)[C@@H](O)[C@@H]1N[C@H]1C=C(CO)[C@@H](O)[C@H](O)[C@H]1O` (stereo partly shown) [acarbose], the “Effectiveness in the saccharase inhibition test in vitro (saccharase inhibitor units per g)” value is reported as 77 700 SIU/g.

Source of the values: patent US4536493A, “Saturated aminocyclitol derivatives, their preparation and medicaments containing these compounds” (Baker Aktiengesellschaft, priority 1981, dated 1985).
